Measured values reported in ChEMBL document CHEMBL3763074, “Hesperetin derivatives: Synthesis and anti-inflammatory activity” (Bioorg Med Chem Lett, 2016).
Activity calls are given as the source filed them. No cut-off for these calls is given here.

Assays:
[1] = Octanol/water partition coefficient, logP of the compound by shake flask method; format: physicochemical
RAW264.7 [2] = assay: Antiinflammatory activity in mouse RAW264.7 assessed as decrease in LPS-induced IL-6 production at 10 uM pretreated with 1 ug/ml LPS for 22 hrs followed by addition of compound for 24 hrs by ELISA; format: functional, cell-based
RAW264.7 [3] = assay: Antiinflammatory activity in mouse RAW264.7 assessed as decrease in LPS-induced TNF-alpha production at 10 uM pretreated with 1 ug/ml LPS for 22 hrs followed by addition of compound for 24 hrs by ELISA; format: functional, cell-based
RAW264.7 [4] = assay: Cytotoxicity against mouse RAW264.7 cells at 100 uM for 24 hrs by MTT assay; format: cell-based; settings: raw264.7, 24 h
RAW264.7 [5] = assay: Cytotoxicity against mouse RAW264.7 cells at 1 to 10 uM for 24 hrs by MTT assay; format: cell-based; settings: raw264.7, 24 h
RAW264.7 [6] = assay: Antiinflammatory activity in mouse RAW264.7 assessed as decrease in LPS-induced TNF-alpha production pretreated with 1 ug/ml LPS for 22 hrs followed by addition of compound for 24 hrs by ELISA; format: functional, cell-based
RAW264.7 [7] = assay: Antiinflammatory activity in mouse RAW264.7 assessed as decrease in LPS-induced IL-6 production pretreated with 1 ug/ml LPS for 22 hrs followed by addition of compound for 24 hrs by ELISA; format: functional, cell-based
RAW264.7 [8] = assay: Antiinflammatory activity in mouse RAW264.7 assessed as inhibition of LPS-induced notch-1 expression at 10 uM pretreated with 1 ug/ml LPS for 22 hrs followed by addition of compound for 24 hrs by Western blot analysis; format: functional, cell-based
RAW264.7 [9] = assay: Antiinflammatory activity in LPS-induced mouse RAW264.7 assessed as inhibition of LPS-induced iNOS expression pretreated with 1 ug/ml LPS for 22 hrs followed by addition of compound for 24 hrs by Western blot analysis; format: functional, cell-based

Row | Compound | logP [1] | Activity (RAW264.7 [2]) | Activity (RAW264.7 [3]) | Activity (RAW264.7 [4]) | Activity (RAW264.7 [5]) | Activity (RAW264.7 [6]) | Activity (RAW264.7 [7]) | Activity (RAW264.7 [8]) | Activity (RAW264.7 [9])
1 | COc1ccc([C@@H]2CC(=O)c3c(cc(O)c(CNCCc4ccc(Cl)cc4)c3O)O2)cc1O | 1.77 | Active | Active | – | – | – | – | – | –
2 | COc1ccc([C@@H]2CC(=O)c3c(cc(O)c(CN4CCOCC4)c3O)O2)cc1O | 1.23 | Active | Active | – | – | – | – | – | –
3 | COc1ccc(CCNCc2c(O)cc3c(c2O)C(=O)C[C@@H](c2ccc(OC)c(O)c2)O3)cc1 | 1.56 | Active | Active | Toxic | Non-toxic | – | – | – | –
4 | COc1ccc([C@@H]2CC(=O)c3c(cc(O)c(CNC(C)C)c3O)O2)cc1O | -0.26 | Active | Active | – | Non-toxic | Dose-dependent effect | Dose-dependent effect | Active | –
5 | COc1ccc2c(c1)c(CC(=O)O)c(C)n2C(=O)c1ccc(Cl)cc1 | – | Active | Active | – | – | – | – | – | –
6 | COc1ccc([C@@H]2CC(=O)c3c(cc(O)c(CNCCc4ccccc4)c3O)O2)cc1O | 1.67 | Active | Active | Toxic | Non-toxic | – | – | – | –
7 | COc1ccc([C@@H]2CC(=O)c3c(O)cc(O)cc3O2)cc1O [HESPERETIN] | 2.15 | Active | Active | – | Non-toxic | – | – | – | –
8 | COc1ccc([C@@H]2CC(=O)c3c(cc(O)c(CN(C)C)c3O)O2)cc1O | 1.03 | Active | Active | – | – | – | – | – | –
9 | COc1ccc([C@@H]2CC(=O)c3c(cc(O)c(CN4CCN(CCO)CC4)c3O)O2)cc1O | 1.15 | Active | Active | – | – | – | – | – | –
10 | COc1ccc([C@@H]2CC(=O)c3c(cc(O)c(CN4CCN(CCN5CCOCC5)CC4)c3O)O2)cc1O | 1.18 | Active | Active | – | – | – | – | – | –
11 | CCC(C)NCc1c(O)cc2c(c1O)C(=O)C[C@@H](c1ccc(OC)c(O)c1)O2 (stereo not given in full) | 0.04 | Active | Active | – | – | – | – | – | –
12 | COc1ccc([C@@H]2CC(=O)c3c(cc(O)c(CNC(C)c4ccccc4)c3O)O2)cc1O (stereo not given in full) | 1.72 | Active | Active | – | – | – | – | – | –
13 | CCN(CC)Cc1c(O)cc2c(c1O)C(=O)C[C@@H](c1ccc(OC)c(O)c1)O2 | 1.68 | Active | Active | – | Non-toxic | – | – | – | –
14 | CCN1CCN(Cc2c(O)cc3c(c2O)C(=O)C[C@@H](c2ccc(OC)c(O)c2)O3)CC1 | -0.75 | Active | Active | Toxic | Non-toxic | Dose-dependent effect | Dose-dependent effect | Active | –
15 | COc1ccc([C@@H]2CC(=O)c3c(cc(O)c(CNCCc4ccc([N+](=O)[O-])cc4)c3O)O2)cc1O | 1.73 | Active | Active | – | – | – | – | – | –
16 | COc1ccc([C@@H]2CC(=O)c3c(cc(O)c(CNC(C)(C)C)c3O)O2)cc1O | -0.76 | Active | Active | Toxic | Non-toxic | Dose-dependent effect | Dose-dependent effect | Active | Dose-dependent effect
17 | COc1ccc([C@@H]2CC(=O)c3c(cc(O)c(CN4CCN(C)CC4)c3O)O2)cc1O | 1.19 | Active | Active | – | Non-toxic | – | – | – | –
18 | COc1ccc([C@@H]2CC(=O)c3c(cc(O)c(CNCCCN4CCOCC4)c3O)O2)cc1O | 1.2 | Active | Active | – | – | – | – | – | –
